Laboratory results from patent US20160221965A1, “DISUBSTITUTED TRIFLUOROMETHYL PYRIMIDINONES AND THEIR USE” (BAYER PHARMA AKTIENGESELLSCHAFT, priority 2013, published 2016).

Tests used:
Assay type in all cases: cell-based
[1] = target: T1, murine CCR2 (Mus musculus, UniProt P51683); assay: Functional β-arrestin recruiting test with murine MCP-1 (B-2b); conditions: U2OS β-arrestin cell line transfected with murine CCR2; agonist murine MCP-1
T1 construct: host or cells: U2OS β-arrestin cell line
Procedure: (§1) The antagonistic action of test substances on CCR2 was determined in a β-arrestin test. The PathHunter β-arrestin GPCR test system (DiscoveRx Corporation, Ltd.) is a cell-based functional method for detecting binding of β-arrestin to an activated receptor. The molecular basis is a β-galactosidase complementation measured by the enzymatic conversion of a chemiluminescent substrate. The test cell used was a U2OS β-arrestin cell line transfected with murine CCR2 (93-0543C3, DiscoveRx Corporation, Ltd.).
(§2) The test substances were dissolved in dimethyl sulphoxide (DMSO) at a concentration of 10 mM and serially diluted with DMSO in steps of 1:3.16 for a 10-point dose/activity analysis. According to the desired test concentrations, the substances were pre-diluted in Tyrode with 2 mM CaCl2 and 0.05% BSA.
(§3) The cells, cultivated in MEM Eagle (supplemented with 10% FCS, 50 U/ml of penicillin, 50 μg/ml of streptomycin, 250 μg/ml of hygromycin and 500 μg/ml of geniticin), were sown at 2000 cells/25 μl in 384 well, μCLEAR/black cell culture plates from Greiner (#781092) and incubated at 37° C. for 24 h. The sowing medium consisted of Opti-MEM (supplemented with 1% FCS, 50 U/ml of penicillin and 50 μg/ml of streptomycin). The cells were pre-incubated for 10 min with 10 μl of the test substances diluted in buffer, and 10 μl of agonist solution [human MCP-1 (PeproTech, #300-04) in Tyrode with 0.05% BSA] were then added. The human MCP-1 was employed at the concentration which corresponds to the EC50 which had been determined in a preliminary test (usually about 3 nM). After 90 min of incubation at 37° C., the solution was removed, and recruitment of β-arrestin to CCR2 was detected with the aid of the PathHunter detection reagent (93-001, DiscoveRx Corporation, Ltd.) according to the instructions of the manufacturer. Luminescence was measured after an incubation time of 60 min using a proprietary luminescence imaging measuring instrument. The molar concentration of the test substance which caused 50% inhibition of the MCP-1 effect (IC50) was determined using a 4-parameter logistic function (Hill function).
The test was carried out in a manner identical to that described above under B-2a, but using murine MCP-1 (PeproTech, #250-10) as agonist.

[2] = target: T2, human CCR2 (Homo sapiens, UniProt P41597); assay: Functional Ca2+ release test (B-1); conditions: Chem-1 cell line transfected with human CCR2, inhibition of MCP-1 effect, MCP-1 at EC50 (about 5 nM), Fluo-4
T2 construct: host or cells: Chem-1 cell line
T2 sequence (P41597 1-360 isoform P41597-2): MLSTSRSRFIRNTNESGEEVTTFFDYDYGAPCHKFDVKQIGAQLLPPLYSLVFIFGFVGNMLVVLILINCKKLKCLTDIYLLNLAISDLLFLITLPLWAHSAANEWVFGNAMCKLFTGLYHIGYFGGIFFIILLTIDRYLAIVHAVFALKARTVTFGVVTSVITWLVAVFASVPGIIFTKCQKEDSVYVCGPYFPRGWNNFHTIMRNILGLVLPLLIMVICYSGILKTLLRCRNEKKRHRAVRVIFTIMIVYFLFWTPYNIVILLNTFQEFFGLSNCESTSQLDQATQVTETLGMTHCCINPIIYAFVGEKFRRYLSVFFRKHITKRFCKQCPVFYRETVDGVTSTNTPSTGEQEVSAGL
Procedure: The antagonistic action of test substances on CCR2 was determined in a functional Ca^2+ release test. Binding of CCL2/MCP-1 to CCR2 leads to a change in the conformation of the receptor resulting in Gi/Gq protein activation and intracellular signal cascade. This involves, inter alia, an intracellular Ca^2+ release. The test cell used was a Chem-1 cell line transfected with human CCR2 (ChemiSCREEN™ CCR2B Calcium-Optimized FLIPR Cell Line, Merck Millipore).
as §2
The cells, cultivated in DMEM high glucose [supplemented with 10% FCS, 1 mM pyruvate, 15 mM HEPES, 500 μg/ml geniticin and non-essential amino acids (NEAA)], were sown at 5000 cells/25 μl in 384 well, μCLEAR/black cell culture plates from Greiner (#781092) and incubated at 37° C. for 24 h. The sowing medium consisted of DMEM high glucose [supplemented with 5% FCS, 1 mM pyruvate, 15 mM HEPES, 50 U/ml penicillin, 50 μg/ml streptomycin and non-essential amino acids (NEAA)]. The medium was then removed and the cells were charged for 60 min at 37° C. with Fluo-4 dye [25 μl Tyrode with 3 μM Fluo-4 AM (1 mM DMSO stock solution), 0.4 mg/ml Brilliant Black, 2.5 mM probenicid, 0.03% Pluronic F-127]. The cells were pre-incubated for 10 min with 10 μl of the test substances diluted in buffer, and 20 μl of agonist solution (MCP-1 in Tyrode with 0.05% BSA) were then added. MCP-1 was employed at the concentration which corresponds to the EC50 which had been determined in a preliminary test (usually about 5 nM). Ca^2+ release was monitored over a period of 120 s in 1 s increments in a proprietary fluorescence imaging reader. The molar concentration of the test substance which caused 50% inhibition of the MCP-1 effect (IC50) was determined using a 4-parameter logistic function (Hill function).

[3] = target: T1, murine CCR2; assay: Functional β-arrestin recruiting test with human MCP-1 (B-2a); conditions: U2OS β-arrestin cell line transfected with murine CCR2; agonist human MCP-1 at EC50 (about 3 nM)
Procedure: as §1, §2, §3

T1 sequence (P51683 whole entry): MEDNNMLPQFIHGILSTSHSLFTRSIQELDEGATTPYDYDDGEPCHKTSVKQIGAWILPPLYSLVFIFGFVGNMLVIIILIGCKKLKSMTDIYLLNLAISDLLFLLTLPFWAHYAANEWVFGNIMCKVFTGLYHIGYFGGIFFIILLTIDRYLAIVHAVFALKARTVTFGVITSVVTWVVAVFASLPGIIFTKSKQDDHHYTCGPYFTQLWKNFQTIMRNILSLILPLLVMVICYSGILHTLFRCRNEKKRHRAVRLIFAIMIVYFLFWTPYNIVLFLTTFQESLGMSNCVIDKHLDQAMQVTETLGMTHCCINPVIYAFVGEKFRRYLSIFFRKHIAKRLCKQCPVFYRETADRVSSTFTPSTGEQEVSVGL

`Nc1nc(C(F)(F)F)c(Cc2ccc(Cl)nc2)c(=O)[nH]1` [Example 58] gave an IC50 [1] of 60000 nM and an IC50 [2] of 381 nM.

`Nc1nc(C(F)(F)F)c(Cc2cnc(Cl)c(Cl)c2)c(=O)[nH]1` [Example 59] was tested, and the IC50 [1] was 7280 nM and the IC50 [2] was 11 nM.

`CNc1nc(C(F)(F)F)c(Oc2ccc(Cl)c(Cl)c2)c(=O)[nH]1` [Example 66] was tested, and the IC50 [1] was 506 nM and the IC50 [2] was 9.8 nM.

`Nc1nc(C(F)(F)F)c(S(=O)(=O)c2ccc(Cl)c(C(F)(F)F)c2)c(=O)[nH]1` [Example 61] was tested, and the IC50 [1] was 2950 nM and the IC50 [2] was 110 nM.

Compound `CC(c1ccc(Cl)c(Cl)c1)c1c(C(F)(F)F)nc(N)[nH]c1=O` (stereo not drawn) [Example 70] has an IC50 [1] of 3710 nM and an IC50 [2] of 45 nM.

Compound `Nc1nc(C(F)(F)F)c([S+]([O-])c2ccc(Cl)c(Cl)c2)c(=O)[nH]1` (stereo not drawn) [Example 62] has an IC50 [1] of 1340 nM and an IC50 [2] of 542 nM.

`CCNc1nc(C(F)(F)F)c(Oc2ccc(Cl)c(Cl)c2)c(=O)[nH]1` [Example 64, 5-(3,4-Dichlorophenoxy)-2-(ethylamino)-6-(trifluoromethyl)pyrimidin-4(3H)-one] was tested, and the IC50 [1] was 2700 nM and the IC50 [2] was 13 nM.

Compound `NC(=O)Nc1nc(C(F)(F)F)c(Cc2ccc(Cl)c(Cl)c2)c(=O)[nH]1` [Example 56, 1-[5-(3,4-Dichlorobenzyl)-6-oxo-4-(trifluoromethyl)-1,6-dihydropyrimidin-2-yl]urea] has an IC50 [2] of 17 nM and an IC50 [3] of 330 nM.

For `CCc1nc(C(F)(F)F)c(Cc2ccc(Cl)c(Cl)c2)c(=O)[nH]1` [Example 31, 5-(3,4-dichlorobenzyl)-2-ethyl-6-(trifluoromethyl)pyrimidin-4(3H)-one], the IC50 [2] was 120 nM and the IC50 [3] was 220 nM.

For `NC(=O)Cc1nc(C(F)(F)F)c(Oc2ccc(F)c(C(F)(F)F)c2)c(=O)[nH]1` [Example 49], the IC50 [2] was 91 nM and the IC50 [3] was 380 nM.

Work on `Nc1nc(C(F)(F)F)c(Sc2ccc(Cl)c(C(F)(F)F)c2)c(=O)[nH]1` [Example 17, 2-amino-5-{[4-chloro-3-(trifluoromethyl)phenyl]sulphanyl}-6-(trifluoromethyl)pyrimidin-4(3H)-one] yielded an IC50 [2] of 4.1 nM and an IC50 [3] of 160 nM.

For `O=c1[nH]c(C2CC2)nc(C(F)(F)F)c1Cc1cccc(Cl)c1` [Example 21, 5-(3-chlorobenzyl)-2-cyclopropyl-6-(trifluoromethyl)pyrimidin-4(3H)-one], the IC50 [2] was 230 nM and the IC50 [3] was 590 nM.

`O=c1[nH]c(CO)nc(C(F)(F)F)c1Oc1ccc(F)c(Cl)c1` [Example 52] was tested, and the IC50 [2] was 7.8 nM and the IC50 [3] was 140 nM.

In the case of `Nc1nc(C(F)(F)F)c(Oc2ccc(Cl)c(F)c2)c(=O)[nH]1` [Example 5, 2-amino-5-(4-chloro-3-fluorophenoxy)-6-(trifluoromethyl)pyrimidin-4(3H)-one], the IC50 [2] is reported as 8.7 nM and the IC50 [3] is reported as 210 nM.

`CCCCc1nc(C(F)(F)F)c(Cc2ccc(Cl)c(Cl)c2)c(=O)[nH]1` [Example 22, 2-butyl-5-(3,4-dichlorobenzyl)-6-(trifluoromethyl)pyrimidin-4(3H)-one] showed an IC50 [2] of 110 nM and an IC50 [3] of 740 nM.

Work on `NC(=O)Cc1nc(C(F)(F)F)c(Cc2ccc(F)c(Cl)c2)c(=O)[nH]1` [Example 44] yielded an IC50 [2] of 90 nM and an IC50 [3] of 420 nM.

With `CCc1nc(C(F)(F)F)c(Cc2ccc(F)c(Cl)c2)c(=O)[nH]1` [Example 28, 5-(3-chloro-4-fluorobenzyl)-2-ethyl-6-(trifluoromethyl)pyrimidin-4(3H)-one] the IC50 [2] was 44 nM and the IC50 [3] was 290 nM.

`Cc1ccc(Cc2c(C(F)(F)F)nc(N)[nH]c2=O)cc1Cl` [Example 11, 2-amino-5-(3-chloro-4-methylbenzyl)-6-(trifluoromethyl)pyrimidin-4(3H)-one] gave an IC50 [2] of 42 nM and an IC50 [3] of 560 nM.

Work on `NC(=O)Cc1nc(C(F)(F)F)c(Cc2ccc(C(F)(F)F)c(Cl)c2)c(=O)[nH]1` [Example 35, 2-{5-[3-Chloro-4-(trifluoromethyl)benzyl]-6-oxo-4-(trifluoromethyl)-1,6-dihydropyrimidin-2-yl}acetamide] yielded an IC50 [2] of 150 nM and an IC50 [3] of 3700 nM.

In the case of `NC(=O)Cc1nc(C(F)(F)F)c(Oc2ccc(Cl)c(C(F)(F)F)c2)c(=O)[nH]1` [Example 45], the IC50 [2] is reported as 8 nM and the IC50 [3] is reported as 130 nM.

With `Nc1nc(C(F)(F)F)c(Cc2ccc(F)c(Cl)c2)c(=O)[nH]1` [Example 7, 2-amino-5-(3-chloro-4-fluorobenzyl)-6-(trifluoromethyl)pyrimidin-4(3H)-one] the IC50 [2] was 11 nM and the IC50 [3] was 300 nM.

`O=c1[nH]c(C2CC2)nc(C(F)(F)F)c1Oc1ccc(Cl)c(Cl)c1` [Example 25, 2-cyclopropyl-5-(3,4-dichlorophenoxy)-6-(trifluoromethyl)pyrimidin-4(3H)-one] gave an IC50 [2] of 15 nM and an IC50 [3] of 170 nM.

In the case of `Nc1nc(C(F)(F)F)c(Oc2ccc(F)c(Cl)c2)c(=O)[nH]1` [Example 4, 2-amino-5-(3-chloro-4-fluorophenoxy)-6-(trifluoromethyl)pyrimidin-4(3H)-one], the IC50 [2] is reported as 6.5 nM and the IC50 [3] is reported as 220 nM.

For `NC(=O)Cc1nc(C(F)(F)F)c(Oc2ccc(F)c(Cl)c2)c(=O)[nH]1` [Example 36], the IC50 [2] was 110 nM and the IC50 [3] was 1600 nM.

In the case of `CCc1nc(C(F)(F)F)c(Cc2cccc(C(F)(F)F)c2)c(=O)[nH]1` [Example 20, 2-ethyl-6-(trifluoromethyl)-5-[3-(trifluoromethyl)benzyl]pyrimidin-4(3H)-one], the IC50 [2] is reported as 300 nM and the IC50 [3] is reported as 1200 nM.

`NC(=O)Cc1nc(C(F)(F)F)c(Oc2cccc(Cl)c2)c(=O)[nH]1` [Example 38] showed an IC50 [2] of 320 nM and an IC50 [3] of 3300 nM.

`Nc1nc(C(F)(F)F)c(Cc2ccc(C(F)(F)F)c(Cl)c2)c(=O)[nH]1` [Example 14, 2-amino-5-[3-chloro-4-(trifluoromethyl)benzyl]-6-(trifluoromethyl)pyrimidin-4(3H)-one] was tested, and the IC50 [2] was 71 nM and the IC50 [3] was 810 nM.

Compound `CCc1nc(C(F)(F)F)c(Cc2ccc(C(F)(F)F)c(Cl)c2)c(=O)[nH]1` [Example 19, 5-[3-Chloro-4-(trifluoromethyl)benzyl]-2-ethyl-6-(trifluoromethyl)pyrimidin-4(3H)-one] has an IC50 [2] of 63 nM and an IC50 [3] of 980 nM.

`O=c1[nH]c(C2CC2)nc(C(F)(F)F)c1Cc1ccc(Cl)c(F)c1` [Example 23, 5-(4-chloro-3-fluorobenzyl)-2-cyclopropyl-6-(trifluoromethyl)pyrimidin-4(3H)-one] was tested, and the IC50 [2] was 280 nM and the IC50 [3] was 1200 nM.

`Nc1nc(C(F)(F)F)c(Cc2ccc(Cl)c(F)c2)c(=O)[nH]1` [Example 13, 2-amino-5-(4-chloro-3-fluorobenzyl)-6-(trifluoromethyl)pyrimidin-4(3H)-one] showed an IC50 [2] of 69 nM and an IC50 [3] of 330 nM.
